From US10849838B2, “Biaromatic vitamin D analogs” (DSM IP ASSETS B.V., priority 2015, dated 2020)

Biological target: T1, human vitamin D receptor (VDR) (Homo sapiens, UniProt P11473)
T1 construct: expressed in transfected cells; host or cells: HEK293 cells (ATCC), transient transfection
T1 sequence (P11473 127-423 limits assumed): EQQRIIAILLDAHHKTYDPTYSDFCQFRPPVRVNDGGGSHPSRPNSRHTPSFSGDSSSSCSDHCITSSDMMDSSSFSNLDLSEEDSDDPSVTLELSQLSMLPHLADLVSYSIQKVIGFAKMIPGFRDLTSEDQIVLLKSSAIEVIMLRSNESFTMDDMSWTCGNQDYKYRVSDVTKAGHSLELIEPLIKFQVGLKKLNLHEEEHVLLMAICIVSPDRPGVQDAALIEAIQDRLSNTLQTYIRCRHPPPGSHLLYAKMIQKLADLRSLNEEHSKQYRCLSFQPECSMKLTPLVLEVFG
Test: Human vitamin D receptor (VDR) agonist activity, GAL4-VDR LBD luciferase transactivation assay in transiently transfected HEK293 cells
Assay type: cell-based
Conditions: hybrid VDR-GAL4 receptor, pFR-Luc luciferase reporter, 16 h incubation, read-out: Effective concentrations of half maximal activation (EC50)
From the text: By way of example, the human vitamin D receptor (VDR) agonist activity of the claimed compounds can be tested using a cell based transactivation assay in an eukaryotic cell line. After a co-transfection, using a reporter plasmid construct and a hybrid receptor construct containing the ligand-binding domain of the human VDR linked to the DNA-binding domain of the yeast transcription factor GAL4, the cultured cells were stimulated by the VDR agonists. The hybrid VDR-GAL4 receptor binds the VDR agonists and transactivates luciferase reporter expression through the GAL4-response elements in the promoter of the luciferase gene (reporter construct). The VDR agonist binding and transactivation is determined by measuring the luciferase luminescence activity. The effective concentration of half maximal activation (EC50) was determined for the VDR agonists by means of dose-response experiments. The details of the protocol method of this test according to the invention are described in the example section. […]

Compound | EC50 [nM]
CC/C(=C\C=C\C(O)(CC)CC)c1cccc(CCc2ccc(CO)c(C(C)O)c2)c1 (racemic) [Comp1] | 113
CC/C(=C\C=C\C(O)(CC)CC)c1cccc(CCc2ccc(C(C)O)c(CO)c2)c1 (racemic) [I-a, (4E,6E)-3-ethyl-7-(3-(4-(1-hydroxyethyl)-3-(hydroxymethyl)phenethyl)phenyl)nona-4,6-dien-3-ol] | 7
